Measured values from US10066190B2, “Mild liquid detergent formulations” (Henkel IP & Holding GmbH, priority 2016, dated 2018).

Tested on: human stratum corneum
Assay: Corneosurfametry test
Text: Another method to measure the skin irritancy potential is corneosurfametry (CSM) test, a noninvasive quantitative test that measures the interaction between surfactants and human stratum corneum. ([…] et al., Dermatology 189: 152-156 (1994)). Corneosurfametry involves removing a few layers of skin using cyanoacrylate skin surface strippings, short contact time with surfactants followed by staining the samples with fuchian dyes. A […] barrier allows greater penetration of the stain, therefore giving a more intense color, which is measured using colorimetrically with L*a*b* color space. This method is predictive of both protein and lipid damage in the skin. CIM (Color Indicator of Mildness) values are obtained from a corneosurfametry test. In a comparative study, the higher the CIM value, the milder the surfactant formulation. The test surfactant solution can be a solution with 3% active surfactant, or a 10% dilution of a surfactant formulation/product which has a total surfactant concentration of about 10%-25%. Corneosurfametry involves removing a few layers of human skin from the volar forearm of healthy adults using skin surface strippings. The skin was collected with D-Squame tapes (for tests with neutral pH formulas) and with Book tape (for tests with high pH formulas). […] Once the tapes are dry, they were analyzed with spectrophotometer. […]

In the case of `CCCCCCCCCCCCOS(=O)(=O)[O-].[Na+]` [1% SDS, SDS], the CIM is reported as 36.84.
